From patent US11058756B2, “Compositions and methods of treating autoimmune disease by reducing enterococcus” (YALE UNIVERSITY, priority 2017, dated 2021) come the findings set out here.

One experiment relates to (NZWxBXSB)F1 mice. Kind of experiment: Oral antibiotics in drinking water: mortality, clinical outcome, proteinuria and organ histology in the autoimmune hybrid model. Format: in vivo, mouse. The source says: 6-week-old male (NZWxBXSB)F1 mice and C57BL/6J mice were used in this study except if noted otherwise. (NZWxBXSB)F1 were bred by mating NZW/LaJ females with BXSB/MpJ males obtained from Jackson Laboratory (Bar Harbor, Me., USA). Parental littermates of (NZWxBXSB)F1 were randomly mixed with littermates from other parental cages 21 days after birth to equilibrate the microbiomes from different cages and parental origin. All mice were maintained in a specific-pathogen-free environment. (NZWxBXSB)F1 mice were provided with water and a standard laboratory diet ad libitum (2018 Harlan Teklad, South Easton, Mass., USA). They were supplied with hardwood chips as bedding and were housed in a temperature-controlled, air-conditioned room on a 12-hr light-dark cycle. Germ-free (GF) C57BL/6 mice were kept under sterile conditions in CBC's (Class Biologically Clean, Madison, Wis., USA) Quad flexible film isolators (Softwall), exposed to a 12-hr light/dark cycle and provided standard, autoclaved tap water and mouse chow (2018S Harlan Teklad, South Easton, Mass., USA) ad libitum. To exclude a Th17 bias, a PCR for segmented filamentous bacteria (SFB) was performed on fecal DNA from all mice involving Th17 studies. Fecal SFB detection at 6-8 weeks of age that correlates with ileal SFB colonization was performed as described (Barman et al., 2008, Infect Immun, 76, 907-915; Kriegel et al., 2011, Proc Natl Acad Sci USA, 108, 11548-11553). All Th17 data was derived from SFB-negative animals.
(§1) Mice were cohoused for 3 to 4 weeks before antibiotic treatment to allow for equilibration of the microbiota. Single antibiotic or broad-spectrum antibiotic administration consisted of metronidazole (1 g/liter; Fisher Scientific), neomycin (1 g/liter; Fisher Scientific), ampicillin (1 g/liter; Sigma) and vancomycin (0.5 g/liter; Acros Organics) in the drinking water for up to 22 weeks or a targeted regiment for 2 weeks and then replaced with regular water for the duration of the experiment. For broad-spectrum antibiotic experiments (vancomycin, ampicillin, metronidazole, and neomycin combined), sweetener (Equal, 4 g/L) was added to both the antibiotics and control water due to the metallic taste of metronidazole. Twenty-four hours after cessation of antibiotic water, mice were administered 1×10^6 CFUs of vancomycin-resistant E. gallinarum via oral gavage, isolated from liver tissue of a vancomycin-treated mouse that continued to show signs of autoimmune disease (high-level resistance was confirmed by vanC gene PCR). E. gallinarum was grown at 37° C. in Gifu Anaerobic Broth (HIMEDIA Laboratories) to early stationary phase under anaerobic conditions (82% N2, 15% CO2, 3% H2 by volume) in an anaerobic chamber and diluted in PBS to 10^7 CFUs.
Samples were obtained at autopsy and fixed in 10% neutral formalin, and histological sections were stained with hematoxylin and eosin (H&E) and scored in a blinded fashion. Glomerulonephritis was scored on a scale of 0-4 based on the intensity and extent of histopathological changes (Klopfleisch, 2013, BMC Vet Res, 9, 123). A grade of 0 was given to kidneys without glomerular lesions; grade 1 consisted of minimal thickening of the mesangium; grade 2 contained noticeable increases in both mesangial and glomerular cellularity; grade 3 was characterized by the preceding conditions with superimposed inflammatory exudates and capsular adhesions; and grade 4 consisted of obliterated glomerular architecture in greater than 70% of glomeruli. […]

A further experiment concerns ERV gp70. Description: Liver ERV gp70 expression by RT-qPCR after oral antibiotics. It is filed as in vivo, mouse. The conditions noted are these: oral vancomycin; FIG. 7.
Excerpt: as §1, with “E. gallinarum was grown at 37° C. in Gifu Anaerobic Broth (HIMEDIA Laboratories) to early stationary phase under anaerobic conditions (82% N2, 15% CO2, 3% H2 by volume) in an anaerobic chamber and diluted in PBS to 10^7 CFUs.” left out
RNA was isolated from hepatocytes, dendritic cells or ileum using the RNAeasy plus mini kit (Qiagen) according to the manufacturer's instructions. cDNA was generated using the QuantiTect Reverse Transcription Kit (Qiagen). […]

As for `CN[C@H](CC(C)C)C(=O)N[C@H]1C(=O)N[C@@H](CC(N)=O)C(=O)N[C@H]2C(=O)N[C@H]3C(=O)N[C@H](C(=O)N[C@H](C(=O)O)c4cc(O)cc(O)c4-c4cc3ccc4O)[C@H](O)c3ccc(c(Cl)c3)Oc3cc2cc(c3O[C@@H]2O[C@H](CO)[C@@H](O)[C@H](O)[C@H]2O[C@H]2C[C@](C)(N)[C@H](O)[C@H](C)O2)Oc2ccc(cc2Cl)[C@H]1O` [vancomycin], in the experiment with (NZWxBXSB)F1 mice (single antibiotic in drinking water from 6 weeks of age, followed for 30 weeks or until death, FIG. 1A), the Mortality entry is given as “prevented”. Further, the “autoimmune manifestations (proteinuria, organ histology scores)” value with (NZWxBXSB)F1 mice (single antibiotic in drinking water, FIG. 1D-1I) was “prevented”. The “hepatic ERV gp70” value in the experiment with ERV gp70 is reported as “suppressed”.
